Experimental data from patent US12673073B2, “FasL-engineered biomaterials with immunomodulatory function” (University of Louisville Research Foundation, Inc., priority 2017, dated 2026).

Assays:
SA = SA (Streptomyces avidinii, UniProt P22629); conditions: cited from earlier work
avidin = avidin (Gallus gallus, UniProt P02701); conditions: cited from earlier work
[1] = test system: allogeneic (Balb/c) islets in streptozotocin-diabetic C57BL/6 mice; test: Allogeneic islet transplantation under the kidney capsule of diabetic mice; type: in vivo, mouse; conditions: rapamycin injections 0.2 mg/kg daily 15 doses, without SA-FasL-engineered microgels
Procedure: Islet transplantation. BALB/c pancreatic islets were isolated using Liberase TL as a digestive enzyme (Roche Life Science) and purified by a Ficoll density gradient as previously published. […] To biotinylate islets, overnight cultured islets were incubated in 5 μM EZ-Link Sulfo-NHS-LC-Biotin (Thermo Scientific) for 30 min at room temperature, washed extensively with PBS to remove unbound biotin solution. […] Approximately, 500 islets were co-transplanted with 1000 microgels into streptozotocin diabetic (200 mg/kg i.p., diabetes (>250 mg/dL) confirmed on two consecutive days) C57BL/6 or B6.129(Cg)-Foxp3^tm3(DTR/GFP)Ayr (C57BL/6.FoxP3^EGFP/DTR) recipients, where indicated. For Treg depletion, islet graft recipients were injected i.p. with diphtheria toxin (50 μg/kg body weight) and depletion was confirmed 3 days later in peripheral blood lymphocytes using flow cytometry. Selected groups were also treated i.p. with rapamycin at 0.2 mg/kg daily for 15 doses starting the day of transplantation. Unmodified BALB/c islets co-transplanted with unmodified PEG gels were used as controls. Animals were monitored for blood glucose and >250 mg/dL blood glucose levels for two consecutive daily measurements were considered rejected. […] Blood glucose levels were assessed by tail prick before injection and 10, 20, 30, 60, 90, 120 minutes after injection. […]

Sequence of avidin (P02701 25-152): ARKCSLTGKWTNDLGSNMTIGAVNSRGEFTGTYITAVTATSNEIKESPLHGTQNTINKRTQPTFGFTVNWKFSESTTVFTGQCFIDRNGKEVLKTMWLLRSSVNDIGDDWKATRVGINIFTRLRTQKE
Sequence of SA (P22629 25-183): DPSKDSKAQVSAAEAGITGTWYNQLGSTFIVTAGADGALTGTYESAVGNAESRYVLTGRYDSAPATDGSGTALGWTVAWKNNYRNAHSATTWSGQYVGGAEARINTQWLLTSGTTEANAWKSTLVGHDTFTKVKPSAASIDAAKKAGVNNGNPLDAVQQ

Row | Structure (SMILES) | affinity for SA (SA) | affinity for avidin (avidin) | median survival time (MST) of islet grafts [1] [days]
1 | O=C(O)CCCC[C@@H]1SC[C@@H]2NC(=O)N[C@@H]21 [biotin] | 10^13 M^−1 | 10^15 M^−1 | 
2 | CO[C@H]1C[C@@H]2CC[C@@H](C)[C@@](O)(O2)C(=O)C(=O)N2CCCC[C@H]2C(=O)O[C@H]([C@H](C)C[C@@H]2CC[C@@H](O)[C@H](OC)C2)CC(=O)[C@H](C)/C=C(\C)[C@@H](O)[C@@H](OC)C(=O)[C@H](C)C[C@H](C)/C=C/C=C/C=C/1C [rapamycin] |  |  | 36
